From US8106029B2, “Use of A2A adenosine receptor agonists” (Gilead Sciences, Inc., priority 2004, dated 2012)
≈ marks a conversion by molar mass, not a printed value. Read-outs that look alike come from different tables or passages of the source.

Assays:
A2A-adenosine receptors [1] = settings: average of the 12 assays
Solubility in water = type: physicochemical
Method: Therefore, regadenoson can be dissolved and administered in water so long as the desired weight amount of regadenoson can be administered in an acceptable volume. For example, a preferred dose of about 400 micrograms can be administered in 8 mL of water.

[2] = Example 1: population PK after single IV bolus in healthy male subjects; type: in vivo; settings: human
Method: (§1) The purpose of this study was to investigate the pharmacokinetics (PK), pharmacodynamics (PD), and the maximum tolerated dose of regadenoson in healthy human subjects.
(§2) Thirty-six healthy, male subjects were included in the study. […] ECG, blood pressure (BP), and heart rate (HR) were recorded for up to 24 hours post-dose. Adverse events (AE) were monitored for 24 hours post dose and via telephone 7 days later. A population approach was utilized in applying a three-compartmental PK model to the plasma concentration-time and a Michaelis-Menten model to the time-course of heart rate. The potential influence of various covariates on PK and PD model parameters was investigated.

[3] = Example 1: PD model (Michaelis-Menten) of heart rate time-course in healthy male subjects; type: in vivo, human
Method: as §1, §2

[4] = Example 1: tolerability / maximum tolerated dose in healthy male subjects; type: in vivo, human; settings: for MTD at 24 h: male, human, in vivo, intravenous
Method: as §1, §2

[5] = Example 2: population PK in subjects undergoing cardiac catheterization; type: in vivo; settings: both sexes, human, plasma
Method: (§3) The purpose of this study was to investigate the pharmacokinetics (PK) and pharmacodynamics (PD) of regadenoson in subjects undergoing clinically indicated cardiac catheterization.
(§4) Thirty-six male and female subjects undergoing clinically indicated coronary angiography were studied. […] ECG, average coronary peak flow velocity (APV), measured using intracoronary Doppler flow wire, blood pressure (BP), and heart rate (HR) were continuously monitored for up to 3 hours post-dose. Occurrence of adverse events (AEs) was monitored for approximately 3 hours post dosing and via telephone approximately 14 days later. A population approach was utilized in applying PK and PD models to the plasma concentration, APV, and HR data. The potential influence of various covariates on PK and PD model parameters was investigated.

[6] = Example 2: PD model of average coronary peak flow velocity (APV), intracoronary Doppler flow wire; type: in vivo, human
Method: as §3, §4

[7] = Example 2: PD model (Michaelis-Menten) of heart rate; type: in vivo, human; settings: catheterization subjects
Method: as §3, §4

A2A-adenosine receptors [8] = target: T1, A2A-adenosine receptors (Rattus norvegicus, UniProt P30543); assay: Membrane binding, displacement of [3H]-ZM241385, rat brain striatal membranes; settings: Rat striatum, mean ± SE, read-out: Membrane Binding, affinity [Ki]
T1 construct: rat brain striatal membranes; from tissue; host or cells: rat brain striatum membranes

A2A-adenosine receptors [9] = target: T1, A2A-adenosine receptors; assay: Membrane binding, displacement of [3H]-CG-S21680, rat brain striatal membranes; settings: Rat striatum, mean ± SE, read-out: Membrane Binding, affinity [Ki]
human platelets [10] = assay: Platelet aggregation; type: cell-based; settings: mean ± SE, read-out: Platelet Aggregation, potency
human platelets [11] = assay: Cell calcium mobilization, human platelets; type: cell-based; settings: Platelet, mean ± SE, read-out: Cell calcium Mobilization, potency
human neutrophils = assay: Superoxide anion production, human neutrophils; type: cell-based; settings: Neutrophil, mean ± SE, read-out: Superoxide anion Production, potency

T1 sequence (P30543 whole entry): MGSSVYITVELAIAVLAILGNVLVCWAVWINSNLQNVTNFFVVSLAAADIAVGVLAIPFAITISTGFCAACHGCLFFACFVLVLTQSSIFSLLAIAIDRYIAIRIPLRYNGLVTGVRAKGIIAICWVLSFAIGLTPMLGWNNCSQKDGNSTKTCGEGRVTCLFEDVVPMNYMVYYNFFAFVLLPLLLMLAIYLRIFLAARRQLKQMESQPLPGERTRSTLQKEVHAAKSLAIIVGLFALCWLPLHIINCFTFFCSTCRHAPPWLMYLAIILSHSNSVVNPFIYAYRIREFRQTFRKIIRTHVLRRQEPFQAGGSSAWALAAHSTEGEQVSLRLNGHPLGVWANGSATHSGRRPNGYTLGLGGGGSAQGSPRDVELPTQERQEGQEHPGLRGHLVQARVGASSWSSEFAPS

CCNC(=O)[C@H]1O[C@@H](n2cnc3c(N)nc(NCCc4ccc(CCC(=O)O)cc4)nc32)[C@H](O)[C@@H]1O [CGS 21680]
values of EC50 lower than for regadenoson, on average (A2A-adenosine receptors [1]): 13 fold

CNC(=O)c1cnn(-c2nc(N)c3ncn([C@@H]4O[C@H](CO)[C@@H](O)[C@H]4O)c3n2)c1 [regadenoson, (1-{9-[(4S,2R,3R,5R)-3,4-dihydroxy-5-(hydroxymethyl)oxolan-2-yl]-6-aminopurin-2-yl}pyrazol-4-yl)-N-methylcarboxamide]
solubility (Solubility in water): ~50 µg/mL (≈ 128 µM) | Vd ([2]; plasma, healthy male subjects, IV bolus, read-out: volume of distribution): 83.3 L | clearance ([2]; plasma, healthy male subjects, single IV bolus 0.1 to 30 μg/kg, three-compartmental model, read-out: population value of clearance (CL) (converted)): 677 mL/min | renal clearance as share of the total clearance ([2]; male, in vivo, iv): 57% | EC50 ([3]; Homo sapiens, read-out: concentration causing half-maximal increase in HR (potency)): 0.0124 µg/mL (≈ 0.0318 µM) | maximal increase in HR ([3]; healthy male subjects, model estimate): 76 bpm | adverse events, severity ([4]; healthy male subjects, IV bolus 0.1 to 30 μg/kg): mild to moderate | MTD at 24 h ([4]; standing, dose-limiting syncope or near syncope, read-out: maximum tolerated dose, standing position): 0.01 mg/kg | MTD at 24 h ([4]; supine, read-out: maximum tolerated dose, supine position): 0.02 mg/kg | dose generally well tolerated, standing patients ([4]; standing): up to 10 μg/kg | dose generally well tolerated, supine patients ([4]; supine): up to 20 μg/kg | Vd ([5]; IV bolus, read-out: volume of distribution): 68.1 L | clearance ([5]; single IV bolus 10 to 500 μg, three-compartment model): 498 mL/min | distribution rate constant from the plasma to the effect site ([6]; APV PD model): 4 min⁻¹ | EC50 ([6]; Homo sapiens, catheterization subjects, read-out: potency (concentration that causes half maximal effect) on APV): 0.0299 µg/mL (≈ 0.0766 µM) | maximal increase in APV ([6]; model estimate, effect compartment): 105 cm/s | EC50 ([7]; Homo sapiens, read-out: potency on HR): 0.0275 µg/mL (≈ 0.0704 µM) | maximum increase in the HR ([7]; model estimate): 41 bpm | Ki (A2A-adenosine receptors [8]): 318 ± 5 nM | Ki (A2A-adenosine receptors [9]): 43 ± 3 nM | IC50 (human platelets [10]): 437 ± 44 nM | IC50 (human platelets [11]): 108 ± 8 nM | IC50 (human neutrophils): 328 ± 32 nM
